Source: ChEMBL document CHEMBL1201862, “PubChem BioAssay data set” (2004)
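1) Cells in 96-well plates. 2) Compound, 48 h, 5 concentrations. 3) Linear interpolation between surrounding doses. 4) Unreached endpoint = highest concentration. Here, GI50 denotes the concentration required for 50% inhibition of growth.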 Active and inactive are the calls of the source. Cut-off read from the data, not from the text of the source: active = GI50 up to about 1.1 µM and inactive = higher.

How the values were obtained:
Assay in all cases: DTP human tumour cell line panel, 48 h
786-0 = tested on: 786-0
A498 = tested on: A498
A549 = tested on: A549
ACHN = tested on: ACHN
BT-549 = tested on: BT-549
CAKI-1 = tested on: CAKI-1
CCRF-CEM = tested on: CCRF-CEM
COLO 205 = tested on: COLO 205
DU-145 = tested on: DU-145
EKVX = tested on: EKVX
HCC 2998 = tested on: HCC 2998
HCT-116 = tested on: HCT-116
HCT-15 = tested on: HCT-15
HL-60 = tested on: HL-60
HOP-62 = tested on: HOP-62
HOP-92 = tested on: HOP-92
HT-29 = tested on: HT-29
Hs-578T = tested on: Hs-578T
IGROV-1 = tested on: IGROV-1
K562 = tested on: K562
KM12 = tested on: KM12
LOX IMVI = tested on: LOX IMVI
M14 = tested on: M14
MCF7 = tested on: MCF7
MDA-MB-231 = tested on: MDA-MB-231
MDA-MB-435 = tested on: MDA-MB-435
MDA-N = tested on: MDA-N
Malme-3M = tested on: Malme-3M
NCI-H226 = tested on: NCI-H226
NCI-H23 = tested on: NCI-H23
NCI-H460 = tested on: NCI-H460
NCI-H522 = tested on: NCI-H522
NCI/ADR-RES = tested on: NCI/ADR-RES
OVCAR-3 = tested on: OVCAR-3
OVCAR-4 = tested on: OVCAR-4
OVCAR-5 = tested on: OVCAR-5
OVCAR-8 = tested on: OVCAR-8
PC-3 = tested on: PC-3
RPMI-8226 = tested on: RPMI-8226
RXF 393 = tested on: RXF 393
SF-268 = tested on: SF-268
SF-295 = tested on: SF-295
SF-539 = tested on: SF-539
SK-MEL-28 = tested on: SK-MEL-28
SK-MEL-2 = tested on: SK-MEL-2
SK-MEL-5 = tested on: SK-MEL-5
SK-OV-3 = tested on: SK-OV-3
SN12C = tested on: SN12C
SNB-19 = tested on: SNB-19
SNB-75 = tested on: SNB-75
SR = tested on: SR
SW-620 = tested on: SW-620
T47D = tested on: T47D
TK-10 = tested on: TK-10
U-251 = tested on: U-251
UACC-257 = tested on: UACC-257
UACC-62 = tested on: UACC-62
UO-31 = tested on: UO-31
MOLT-4 = tested on: MOLT-4

Measured: GI50

CC(=O)n1cc(C2CC23N=C(c2ccccc2)OC3=O)c2ccccc21 (stereo not drawn)
inactive: 786-0 14.8 µM | A498 22.6 µM | A549 21.7 µM | ACHN 17.7 µM | BT-549 14.2 µM | CAKI-1 15.8 µM | CCRF-CEM 1.12 µM | COLO 205 18.4 µM | DU-145 16 µM | EKVX 21.8 µM | HCC 2998 13.1 µM | HCT-116 14.4 µM | HL-60 2.04 µM | HOP-62 21.4 µM | HOP-92 22.1 µM | HT-29 17.9 µM | Hs-578T 24.1 µM | IGROV-1 16.8 µM | K562 13.7 µM | KM12 20.2 µM | LOX IMVI 16 µM | M14 16.2 µM | MCF7 19.1 µM | MDA-MB-231 20.8 µM | MDA-MB-435 21.1 µM | MDA-N 23.9 µM | Malme-3M 20.6 µM | NCI-H226 23.6 µM | NCI-H23 16.5 µM | NCI-H460 22.4 µM | NCI-H522 15.3 µM | NCI/ADR-RES 18.2 µM | OVCAR-3 18 µM | OVCAR-4 16.3 µM | OVCAR-5 22 µM | OVCAR-8 16.6 µM | PC-3 17.8 µM | RPMI-8226 7.87 µM | RXF 393 16.3 µM | SF-268 18.3 µM | SF-295 36.7 µM | SF-539 19.5 µM | SK-MEL-28 19.7 µM | SK-MEL-2 21.5 µM | SK-MEL-5 17.1 µM | SK-OV-3 49.9 µM | SN12C 14.7 µM | SNB-19 31.3 µM | SNB-75 19 µM | SR 10.6 µM | SW-620 19.8 µM | T47D 34.9 µM | TK-10 20 µM | U-251 18.1 µM | UACC-257 15.7 µM | UACC-62 16.9 µM | UO-31 15.5 µM
20.3 µM: HCT-15

Cc1ccc(Nc2c(C#N)[n+]([O-])c3cc(Cl)ccc3[n+]2[O-])cc1
5.15 µM: HCT-15
inactive: 786-0 4.8 µM | A498 > 100 µM | A549 23.8 µM | ACHN 11.2 µM | BT-549 9.46 µM | CAKI-1 42 µM | CCRF-CEM 3.23 µM | COLO 205 18.4 µM | DU-145 > 100 µM | EKVX > 81.3 µM | HCC 2998 21.8 µM | HCT-116 8.79 µM | HL-60 3.44 µM | HOP-62 43.1 µM | HOP-92 > 100 µM | HT-29 11.2 µM | Hs-578T > 100 µM | IGROV-1 15.5 µM | K562 11 µM | KM12 12.6 µM | LOX IMVI 6.85 µM | M14 30.3 µM | MCF7 15.3 µM | MDA-MB-231 > 100 µM | MDA-MB-435 44.7 µM | MDA-N > 53.8 µM | MOLT-4 4.8 µM | Malme-3M 79.3 µM | NCI-H226 28.2 µM | NCI-H23 40.5 µM | NCI-H460 9.31 µM | NCI-H522 11.4 µM | NCI/ADR-RES 9.95 µM | OVCAR-3 4.13 µM | OVCAR-4 24.1 µM | OVCAR-5 > 100 µM | OVCAR-8 11.7 µM | PC-3 9.66 µM | RPMI-8226 4.61 µM | RXF 393 > 22.1 µM | SF-268 28.4 µM | SF-295 13.6 µM | SF-539 26.6 µM | SK-MEL-28 > 100 µM | SK-MEL-2 > 100 µM | SK-OV-3 61.7 µM | SN12C > 33.2 µM | SNB-19 > 100 µM | SNB-75 39.5 µM | SR 7.98 µM | SW-620 37.5 µM | T47D > 100 µM | TK-10 29 µM | U-251 29.3 µM | UACC-257 > 76.7 µM | UACC-62 20.7 µM | UO-31 82.4 µM

COc1cccc(CCNc2c(C#N)c3n(c4ccccc4[n+]3C)c3ncccc23)c1
1.75 µM: HCT-15
inactive: 786-0 1.76 µM | A498 20.9 µM | A549 1.82 µM | ACHN 16.7 µM | BT-549 23.3 µM | CAKI-1 6.52 µM | COLO 205 4.93 µM | DU-145 5.42 µM | EKVX 17.3 µM | HCC 2998 1.93 µM | HCT-116 1.77 µM | HL-60 1.79 µM | HOP-62 17.5 µM | HOP-92 27.7 µM | HT-29 1.41 µM | Hs-578T 7.31 µM | K562 2.39 µM | KM12 2 µM | LOX IMVI 1.74 µM | M14 1.76 µM | MCF7 1.52 µM | MDA-MB-231 4.52 µM | MDA-MB-435 2.52 µM | MDA-N 5.2 µM | MOLT-4 2.55 µM | Malme-3M 17.5 µM | NCI-H226 20.9 µM | NCI-H23 20.3 µM | NCI-H460 1.34 µM | NCI-H522 4.16 µM | NCI/ADR-RES 6.93 µM | OVCAR-3 19.6 µM | OVCAR-4 2.04 µM | OVCAR-5 15.3 µM | OVCAR-8 1.7 µM | PC-3 14.4 µM | RPMI-8226 2.71 µM | RXF 393 13.5 µM | SF-268 16.4 µM | SF-295 1.69 µM | SF-539 1.58 µM | SK-MEL-28 20.2 µM | SK-MEL-2 21.4 µM | SK-MEL-5 14.6 µM | SK-OV-3 20.3 µM | SN12C 15.9 µM | SNB-19 5.9 µM | SNB-75 5.96 µM | SR > 100 µM | SW-620 2.47 µM | T47D 6.59 µM | TK-10 21.2 µM | U-251 2.37 µM | UACC-257 21.9 µM | UACC-62 20.8 µM | UO-31 4.53 µM
